According to ChEMBL document CHEMBL1201862, “PubChem BioAssay data set” (2004):
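How tested: cells in 96-well plates exposed to compound for 48 hours at five concentrations. GI50 is the concentration that inhibits growth by half.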 Activity calls are given as the source filed them. Cut-off read from the data, not from the text of the source: active = GI50 up to about 1.1 µM and inactive = higher.

Assays:
Experiment in all cases: NCI anticancer screen, dose series, 48 h
CAKI-1 = tested on: CAKI-1
SNB-19 = tested on: SNB-19
COLO 205 = tested on: COLO 205
T47D = tested on: T47D
RPMI-8226 = tested on: RPMI-8226
NCI-H460 = tested on: NCI-H460
SK-MEL-28 = tested on: SK-MEL-28
OVCAR-5 = tested on: OVCAR-5
SF-539 = tested on: SF-539
BT-549 = tested on: BT-549
HL-60 = tested on: HL-60
Malme-3M = tested on: Malme-3M
HCT-116 = tested on: HCT-116
UO-31 = tested on: UO-31
IGROV-1 = tested on: IGROV-1
HCT-15 = tested on: HCT-15
LOX IMVI = tested on: LOX IMVI
MCF7 = tested on: MCF7
RXF 393 = tested on: RXF 393
M14 = tested on: M14
786-0 = tested on: 786-0
SN12C = tested on: SN12C
SF-295 = tested on: SF-295
Hs-578T = tested on: Hs-578T
SK-OV-3 = tested on: SK-OV-3
OVCAR-3 = tested on: OVCAR-3
ACHN = tested on: ACHN
CCRF-CEM = tested on: CCRF-CEM
MDA-MB-435 = tested on: MDA-MB-435
SW-620 = tested on: SW-620
NCI-H23 = tested on: NCI-H23
UACC-62 = tested on: UACC-62
UACC-257 = tested on: UACC-257
PC-3 = tested on: PC-3
SK-MEL-2 = tested on: SK-MEL-2
A498 = tested on: A498
NCI/ADR-RES = tested on: NCI/ADR-RES
DU-145 = tested on: DU-145
NCI-H226 = tested on: NCI-H226
TK-10 = tested on: TK-10
HT-29 = tested on: HT-29
U-251 = tested on: U-251
K562 = tested on: K562
SF-268 = tested on: SF-268
SNB-75 = tested on: SNB-75
SR = tested on: SR
OVCAR-8 = tested on: OVCAR-8
SK-MEL-5 = tested on: SK-MEL-5
HOP-92 = tested on: HOP-92
MDA-MB-231 = tested on: MDA-MB-231
EKVX = tested on: EKVX
A549 = tested on: A549
OVCAR-4 = tested on: OVCAR-4
KM12 = tested on: KM12
NCI-H522 = tested on: NCI-H522
MOLT-4 = tested on: MOLT-4
HOP-62 = tested on: HOP-62

Measured: GI50

Cc1ccc(S(=O)(=O)OC2CN3CCC2CC3)cc1 (configuration not stated)
> 100 µM: HCT-15
inactive: CAKI-1 > 100 µM | SNB-19 > 100 µM | COLO 205 > 100 µM | T47D > 100 µM | RPMI-8226 > 100 µM | NCI-H460 > 100 µM | SK-MEL-28 > 100 µM | OVCAR-5 > 100 µM | SF-539 > 100 µM | BT-549 > 100 µM | HL-60 22.6 µM | Malme-3M > 100 µM | HCT-116 > 100 µM | UO-31 > 100 µM | IGROV-1 > 100 µM | LOX IMVI > 100 µM | MCF7 > 100 µM | RXF 393 > 100 µM | M14 > 100 µM | 786-0 > 100 µM | SN12C > 100 µM | SF-295 > 100 µM | Hs-578T > 100 µM | SK-OV-3 > 100 µM | OVCAR-3 > 100 µM | ACHN > 100 µM | CCRF-CEM 15.5 µM | MDA-MB-435 > 100 µM | SW-620 > 100 µM | NCI-H23 > 100 µM | UACC-62 > 100 µM | UACC-257 > 100 µM | PC-3 > 100 µM | SK-MEL-2 > 100 µM | A498 > 100 µM | NCI/ADR-RES > 100 µM | DU-145 > 100 µM | NCI-H226 > 100 µM | TK-10 > 100 µM | HT-29 > 100 µM | U-251 > 100 µM | K562 > 100 µM | SF-268 > 100 µM | SNB-75 > 100 µM | SR > 100 µM | OVCAR-8 > 100 µM | SK-MEL-5 > 100 µM | HOP-92 > 100 µM | MDA-MB-231 > 100 µM | EKVX > 100 µM | A549 > 100 µM | OVCAR-4 > 100 µM | KM12 > 100 µM | NCI-H522 > 100 µM | MOLT-4 > 100 µM | HOP-62 > 100 µM
